The results in this text go back to PubChem BioAssay (NCI).

Assay in all cases: inhibition of tumour cell growth, NCI panel, 48 h
Assay [1] relates to 786-0 renal.
For assay [2], the system named is U251 CNS.
The test system of assay [3] is TK-10 renal.
The subject of assay [4] is ACHN renal.
The subject of assay [5] is MALME-3M melanoma.
Assay [6] concerns SF-295 CNS.
Assay [7] concerns MOLT-4 leukemia.
Assay [8] deals with IGROV1 ovarian.
Assay [9] has as its system DU-145 prostate.
For assay [10], the system named is HOP-92 NSCLC.

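All cell lines were grown in 96-well plates and treated with compound for 48 hours. TGI: concentration producing complete growth inhibition.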 Some results are limits rather than exact numbers.

Take `Cc1cn(CC2=NCCN2)c(=O)[nH]c1=O`: the TGI in assay [1], in [2], in [3], in assay [4], in assay [5] and in assay [6] was greater than 100 µM each time. The TGI in [7], in assay [8], in assay [9] and in [10] was greater than 100 µM in each case.

In the case of `O=C1NCC2(CCNCC2)N1c1ccccc1`, the TGI in [1], in assay [2], in [3], in assay [4], in [5] and in assay [6] was greater than 100 µM in each case. Besides, the TGI in [7], in assay [8], in [9] and in assay [10] was greater than 100 µM each time.

`N=C(/C=C/c1ccc(-c2cn3cc(/C=C/C(=N)N4CCCC4)ccc3n2)cc1)N1CCCC1`: the TGI in assay [1], in [2], in assay [3], in assay [4], in assay [5] and in assay [6] was greater than 100 µM each time. The TGI in [7], in assay [8], in [9] and in [10] was greater than 100 µM in each case.

Turning to `CSC(SC)=C1C(=O)NN=C1C`, the TGI in assay [1], in [2], in assay [3], in assay [4], in [5] and in assay [6] was greater than 100 µM each time. Besides, the TGI in assay [7], in assay [8], in [9] and in [10] was greater than 100 µM each time.

On to `Clc1ccccc1/C=C/c1nsc(/C=C/c2ccccc2Cl)n1`, for which the TGI in assay [1] was 39.1 µM; in assay [2], greater than 100 µM; in assay [3] it was 78.1 µM; in assay [4], greater than 100 µM; in assay [5] it was greater than 100 µM; in assay [6], greater than 100 µM. Moreover, the TGI in [7], in assay [8], in assay [9] and in assay [10] was greater than 100 µM each time.

As to `CC(C)(C)c1cc(C(=O)/C=C/c2ccc(O)c(O)c2O)cc(C(C)(C)C)c1O`, the TGI in [1] is 28.8 µM; in assay [2], 12.3 µM; in assay [3] it was 18.3 µM; in assay [4] it was 18.9 µM; in assay [5], greater than 67.5 µM; in assay [6] it was 27.8 µM. Further, the TGI is 28.9 µM in [7], 43.9 µM in [8], 35.6 µM in assay [9] and greater than 42.6 µM in assay [10].

On to `CC[C@@H](CCCC[C@@H]1CC[C@H]2CC(=O)C[C@@H]12)OC`, for which the TGI in assay [1], in assay [2], in assay [3], in assay [4], in assay [5] and in assay [6] was greater than 100 µM throughout. In addition, the TGI in assay [7], in assay [8], in [9] and in [10] was greater than 100 µM throughout.

Regarding `COc1ccc(NC(=O)CC(=O)n2nc(C)c(N=Nc3ccc(C)c(C)c3)c2C)cc1`, the TGI in assay [1], in [2], in [3], in [4], in assay [5] and in assay [6] was greater than 100 µM throughout. The TGI in [7] was greater than 100 µM; in [8], greater than 100 µM; in [9], greater than 100 µM; in [10] it was 65.9 µM.

Take `Cc1cc(S(N)(=O)=O)c(SCc2nc(N)nc(N(C)C)n2)cc1Cl`: the TGI in assay [1], in assay [2], in assay [3], in [4], in assay [5] and in [6] was greater than 10 µM each time. For the same compound, the TGI in assay [7], in assay [8], in [9] and in assay [10] was greater than 10 µM throughout.

Consider `COc1cc(N(CCC#N)CCC#N)ccc1/C(N=Nc1ccc(C)cc1)=N/NC(=O)c1cc(Br)ccc1O`, for which the TGI in assay [1] is greater than 100 µM; in assay [2], greater than 100 µM; in assay [3], 82 µM; in assay [4] it was greater than 100 µM; in [5], greater than 100 µM; in assay [6], greater than 100 µM. In addition, the TGI turned out to be 37.3 µM in [7], 21.9 µM in assay [8], 94.7 µM in assay [9] and 65.6 µM in assay [10].

As for `CN(C)CCN1C(=O)CC[C@@]2(C)C1=CC[C@@H]1[C@@H]2CC[C@@]2(C)[C@H]1CC[C@]2(C)O`, the TGI in [1], in assay [2], in [3], in assay [4], in assay [5] and in [6] was greater than 100 µM throughout. Moreover, the TGI in assay [7], in [8], in assay [9] and in assay [10] was greater than 100 µM in each case.

Regarding `O=[N+]([O-])c1ccc(Cl)cc1-n1nc(-c2ccccc2)cc1-c1ccccc1`, the TGI in [1], in assay [2], in [3], in [4], in [5] and in assay [6] was greater than 100 µM each time. In addition, the TGI in [7], in assay [8], in assay [9] and in assay [10] was greater than 100 µM each time.

`N#C/C(=C1\N=C(c2ccccc2O)Oc2ccccc21)c1ccc([N+](=O)[O-])cc1`: the TGI in assay [1], in assay [2], in [3], in assay [4], in assay [5] and in assay [6] was greater than 100 µM in each case. The TGI in [7], in assay [8], in assay [9] and in assay [10] was greater than 100 µM throughout.

On to `O=C(O)c1cccc(S(=O)(=O)NN2C(=O)CSC2c2ccccc2)c1` (stereo not given), for which the TGI in assay [1], in assay [2], in assay [3], in [4], in assay [5] and in [6] was greater than 100 µM each time. In addition, the TGI in [7], in [8], in [9] and in assay [10] was greater than 100 µM in each case.

Take `CCOC(=O)c1c(O)[nH]c(=O)c(CC)c1C`: the TGI in [1], in assay [2], in assay [3], in assay [4], in [5] and in assay [6] was greater than 100 µM each time. For the same compound, the TGI in assay [7], in [8], in [9] and in assay [10] was greater than 100 µM throughout.

With `C[C@H](CCC1=NCCN1)[C@H]1CC[C@H]2[C@@H]3[C@H](O)C[C@@H]4C[C@H](O)CC[C@]4(C)[C@H]3CC[C@]12C`, the TGI in assay [1] was found to be 27.7 µM; in assay [2] it was 26.5 µM; in assay [3] it was 26.7 µM; in assay [4], 30 µM; in [5], 29.2 µM; in [6] it was 28.9 µM. Besides, the TGI in assay [7] amounted to 27.3 µM; in assay [8] it was 23.9 µM; in assay [9], 27.3 µM; in assay [10], 21.8 µM.

Turning to `CC(=O)Oc1ccc(N2C(=O)C3c4[nH]c5ccccc5c4C4CCC(C(C)(C)C)CC4C3C2=O)cc1` (stereo not given), the TGI came to 4.31 µM in [1]; 11.1 µM in assay [2]; 10.7 µM in [3]; 12.2 µM in assay [4]; 19.4 µM in assay [5]; 14.8 µM in assay [6]. The TGI came out at 94.2 µM in [7], 19.9 µM in assay [8], 12.2 µM in assay [9] and 7.84 µM in assay [10].

With `CCOc1ccc2ccccc2c1NC1=NCCO1`, the TGI in assay [1] was greater than 100 µM; in assay [2] it was greater than 100 µM; in assay [3], greater than 100 µM; in assay [4], greater than 100 µM; in [5] it was greater than 100 µM; in assay [6], 65.5 µM. Also, the TGI in [7] is 84 µM; in [8], greater than 100 µM; in [9] it was greater than 100 µM; in assay [10], 42.2 µM.

Consider `CN1CCN(c2nc3ccccc3nc2C(=O)c2ccc(Cl)cc2)CC1`, for which the TGI was greater than 100 µM in assay [1]; greater than 100 µM in assay [2]; greater than 100 µM in assay [3]; greater than 100 µM in assay [4]; 48.1 µM in assay [5]; greater than 100 µM in [6]. Also, the TGI in assay [7], in assay [8], in assay [9] and in assay [10] was greater than 100 µM in each case.

For the compound `CC(=O)N1c2ccccc2C(C)(C)OC1C(Cl)(Cl)Cl` (stereo not given), the TGI in [1], in assay [2], in assay [3], in assay [4], in assay [5] and in assay [6] was greater than 100 µM throughout. In addition, the TGI in assay [7] is 35.5 µM; in assay [8], greater than 100 µM; in [9] it was greater than 100 µM; in assay [10], 78.9 µM.

Turning to `CSc1c(C(=O)Nc2ccc(C)cc2)c(N)nn1-c1ccccc1`, the TGI in [1] is 45 µM; in [2], greater than 100 µM; in assay [3] it was greater than 100 µM; in assay [4], greater than 100 µM; in assay [5], 75.7 µM; in assay [6], greater than 100 µM. In addition, the TGI in [7] is greater than 100 µM; in assay [8], greater than 100 µM; in assay [9], greater than 100 µM; in [10], 88.1 µM.

With `CCOC(=O)c1cccc(NC(=O)CBr)c1`, the TGI in [1] came out at 0.494 µM; in assay [2], 1.89 µM; in assay [3] it was 3.18 µM; in assay [4], 3.09 µM; in assay [5], 4.22 µM; in assay [6], 14.6 µM. Besides, the TGI in assay [7] worked out at 1.29 µM; in assay [8], 2.77 µM; in assay [9], 3.39 µM; in [10] it was 4.14 µM.

`COc1cc2c(cc1OC)C1Cc3ccccc3CCN1CC2` (stereo not given): the TGI in assay [1], in [2], in assay [3], in assay [4], in [5] and in [6] was greater than 100 µM each time. Moreover, the TGI in assay [7], in assay [8], in assay [9] and in [10] was greater than 100 µM in each case.

Regarding `COc1ccccc1/C=C1\Sc2scc(-c3cccc([N+](=O)[O-])c3)[n+]2C1=O`, the TGI in [1] came out at 9.63 µM; in assay [2], 39.6 µM; in assay [3], 10.7 µM; in assay [4], 9.93 µM; in assay [5], 15.7 µM; in [6] it was 40.2 µM. Also, the TGI in assay [7] worked out at 3.44 µM; in [8], 26.1 µM; in assay [9] it was 26.6 µM; in assay [10], 16.6 µM.

As to `CC[C@@H]1CN2CCC1C[C@@H]2C(O)c1ccnc2ccc(OCCN3CCN(CCOc4ccc5nccc(C(O)[C@@H]6C[C@@H]7CCN6C[C@@H]7CC)c5c4)CC3)cc12` (stereo not given in full), the TGI in assay [1] was 30.2 µM; in assay [2] it was 33.1 µM; in assay [3], 29.1 µM; in assay [4], 28.8 µM; in assay [5], 54.1 µM; in [6] it was 30.5 µM. Also, the TGI in assay [7] was determined as 21.7 µM; in [8], 36.7 µM; in assay [9], 31.8 µM; in assay [10], 22.8 µM.

Turning to `Cc1cc(C)c(S(=O)(=O)N[C@@H](/C=C(\Br)CO)C(C)C)c(C)c1`, the TGI in [1] is greater than 100 µM; in assay [2], greater than 100 µM; in assay [3], greater than 100 µM; in assay [4], greater than 100 µM; in [5], 61.6 µM; in [6] it was greater than 100 µM. Besides, the TGI was 75.3 µM in assay [7], greater than 100 µM in [8], greater than 100 µM in [9] and 75.5 µM in assay [10].
